Results: US6043248A, “Alpha-substituted pyrimidine-thioalkyl and alkylether compounds as inhibitors of viral reverse transcriptase” (priority 1997, dated 2000)
Where a name gives a salt, the structure may show the parent alone.

What was measured:
[1] = target: T1, P236L viral reverse transcriptase (Human immunodeficiency virus type 1 group M subtype B, UniProt P04585, P823L); test: inhibition of viral reverse transcriptase (P236L), cell free assay; format: biochemical; conditions: IC50 (Table I, P236L), 30 minutes at 37° C.
T1 construct: P236L viral reverse transcriptase is obtained by PNAS 90: 4713-4717 (1993); made in house
Summary of the method: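 E. coli-expressed wild-type or P236L RT extracts incubated with inhibitor 30 min at 37 °C in Tris pH 8.3 with MgCl₂, NaCl, DTT, NP-40, 10 μM [35S]-dNTP, poly rC/rG template and oligo dG/dT primer. Incorporated label counted on DE81 paper; reported as % inhibition and/or IC50.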

[2] = target: T2, viral reverse transcriptase (Wild Type) (Human immunodeficiency virus type 1 group M subtype B, UniProt P04585); test: inhibition of viral reverse transcriptase (Wild Type), cell free assay; format: biochemical; conditions: for IC50: read-out: IC50 (Table II, Wild Type)
T2 construct: Viral reverse transcriptase (Wild Type) is found in extracts from bacterial clones; made in house; host or cells: Escherichia coli
From the text: The utility of the pyrimidine-thioalkyl and alkylether anti-AIDS compounds of Formula IA of this invention can be determined by their ability to inhibit viral reverse transcriptase, an enzyme essential for human immunodeficiency virus replication. This enzyme has characteristics which differentiate it from other known cellular polymerases and it is a unique enzyme which is not found in uninfected cells. Viral reverse transcriptase (Wild Type) is found in extracts from bacterial clones prepared according to the procedure described in AIDS Virus Reverse Transcriptase defined by high level expression in Escherichia coli, EMBO J. 6:3133-3137 (1987). P236L viral reverse transcriptase is obtained by PNAS 90: 4713-4717 (1993). Inhibition of this enzyme is determined in a cell free assay which measures the level of radioactive precursors incorporated into DNA. Extracts prepared according to the procedure of Science, 1125-1129 (1981) are incubated in a mixture of inhibitor, 20 mM dithiothreitol, 60 mM sodium chloride, 0.05% NP-40, 10 mM magnesium chloride, 50 mM Tris pH 8.3, 10 μM [^35 S]-labeled deoxynuleoside-5'-triphosphate, 10 μg/ml RNA template (poly rC or poly rG) and 5 μg/ml DNA primer (oligo dG or oligo dT) for 30 minutes at 37° C. Incorporation of radio-labeled percursor is determined by spotting aliquots of the reaction mixture on DE81 paper, washing the papers to remove unincorporated percursor, drying and determining counts. The results (IC50 means the concentration, in μM of drug, required to inhibit the reverse transcriptase activity (P236L and Wild Type) to the extent of 50%) of various assay(s) are combined and reported as % inhibition and/or IC50 (calculated) in Table I (P236L) and Table II (Wild Type).

COC(=O)/C=C/CSc1nc(N)cc(Cl)n1 [Example 193, (E)-4-[(4-Amino-6-chloro-2-pyrimidinyl)thio]-2-butenoic acid methyl ester]
IC50 [1]: 0.93 µM
IC50 ([2]; 30 minutes at 37° C.): 5.25 µM

CCN(CC)C(=O)/C=C/CSc1nc(N)cc(Cl)n1 [Example 194, (E)-N,N-Diethyl-4-[(4-amino-6-chloro-2-pyrimidinyl)thio]-2-butenamide]
IC50 [1]: 0.034 µM
IC50 ([2]; 30 minutes at 37° C.): 0.049 µM

CN1CCN(C(=O)/C=C/CSc2nc(N)cc(Cl)n2)CC1 [Example 195, (E)-4-methyl-1-[4-[(4-amino-6-chloro-2-pyrimidinyl)thio]-1-oxo-2-butenyl]piperazine]
IC50 [1]: 50 µM
inhibition at 50 µM [2]: 40%

CCNC(=O)/C=C/CSc1nc(N)cc(Cl)n1 [Example 196, (E)-N-ethyl-4-[(4-amino-6-chloro-2-pyrimidinyl)thio]-2-butenamide]
IC50 [1]: 10 µM
inhibition at 50 µM [2]: 71%

Nc1cc(Cl)nc(SC/C=C/C(=O)N2CCCCC2)n1 [Example 197, (E)-1-[4-[(4-amino-6-chloro-2-pyrimidinyl)thio]-1-oxo-2-butenyl]piperidine]
inhibition at 10 µM [2]: 83%

Nc1cc(Cl)nc(SC/C=C/C(=O)N2CCOCC2)n1 [Example 198, (E)-4-[4-[(4-amino-6-chloro-2-pyrimidinyl)thio]-1-oxo-2-butenyl]morpholine]
IC50 [1]: 10 µM
inhibition at 50 µM [2]: 69%

Nc1cc(Cl)nc(SC/C=C/C(=O)N2CCCC2)n1 [Example 199, (E)-1-[4-[(4-amino-6-chloro-2-pyrimidinyl)thio]-1-oxo-2-butenyl]pyrrolidine]
inhibition at 1 µM [2]: 93%

CN(C(=O)/C=C/CSc1nc(N)cc(Cl)n1)c1ccccc1 [Example 200, (E)-N-methyl-N-phenyl-4-[(4-amino-6-chloro-2-pyrimidinyl)thio]-2-butenamide]
IC50 [1]: 1 µM
inhibition at 10 µM [2]: 57%

C=CCN(C)C(=O)/C=C/CSc1nc(N)cc(Cl)n1 [Example 201, (E)-N-allyl-N-methyl-4-[(4-amino-6-chloro-2-pyrimidinyl)thio]-2-butenamide]
inhibition at 1 µM [2]: 80%

CCCN(CCC)C(=O)/C=C/CSc1nc(N)cc(Cl)n1 [Example 202, (E)-N,N-Dipropyl-4-[(4-amino-6-chloro-2-pyrimidinyl)thio]-2-butenamide]
inhibition at 1 µM [2]: 62%

CCN(C)C(=O)/C=C/CSc1nc(N)cc(Cl)n1 [Example 203, (E)-N-ethyl-N-methyl-4-[(4-amino-6-chloro-2-pyrimidinyl)thio]-2-butenamide]
inhibition at 1 µM [2]: 96%

CN(C)C(=O)/C=C/CSc1nc(N)cc(Cl)n1 [Example 204, (E)-N,N-Dimethyl-4-[(4-amino-6-chloro-2-pyrimidinyl)thio]-2-butenamide]
inhibition at 1 µM [2]: 78%

CCN(CC)C(=O)/C=C/C(C)Sc1nc(N)cc(Cl)n1 (centres unmarked) [Example 207, (E)-N,N-Diethyl-4-[(4-amino-6-chloro-2-pyrimidinyl)thio]-2-pentenamide]
IC50 [1]: 0.068 µM
IC50 ([2]; 30 minutes at 37° C.): 0.049 µM

COC(=O)/C=C(\C)CSc1nc(N)cc(Cl)n1 [Example 208, (E)-4-[(4-Amino-6-chloro-2-pyrimidinyl)thio]-3-methyl-2-butenoic acid methyl ester]
IC50 [1]: 1 µM
inhibition at 10 µM [2]: 79%

COC(=O)/C=C(\C)C(C)Sc1nc(N)cc(Cl)n1 (centres unmarked) [Example 209, (E)-4-[(4-Amino-6-chloro-2-pyrimidinyl)thio]-3-methyl-2-pentenoic acid methyl ester]
inhibition at 10 µM [2]: 67%

CC(Sc1nc(N)cc(Cl)n1)c1cc(C(C)(C)C)ccn1 (centres unmarked) [Example 210, 4-Amino-6-chloro-2-(1-(4-(1,1-dimethyl)ethyl-2-pyridyl)ethyl)thio-pyrimidine]
IC50 [1]: 0.099 µM
IC50 ([2]; 30 minutes at 37° C.): 0.08 µM

CC(Sc1nc(N)cc(Cl)n1)c1ccccn1 (centres unmarked) [Example 211, 4-Amino-6-chloro-2-(1-(2-pyridyl)ethyl)thio-pyrimidine]
IC50 [1]: 0.046 µM
IC50 ([2]; 30 minutes at 37° C.): 0.19 µM

CC(C)(Sc1nc(N)cc(Cl)n1)c1ccccn1 [Example 212, 4-Amino-6-chloro-2-(1-(2-pyridyl)-1-methylethyl)thio-pyrimidine]
inhibition at 10 µM [2]: 57%

Cc1ccnc(C(C)(C)Sc2nc(N)cc(Cl)n2)c1 [Example 213]
inhibition at 1 µM [2]: 72%

CC(Sc1nc(N)cc(Cl)n1)c1cc(C#N)ccn1 (centres unmarked) [Example 214, 4-Amino-6-chloro-2-(1-(4-cyano-2-pyridyl)ethyl)thio-pyrimidine]
IC50 [1]: 0.178 µM
IC50 ([2]; 30 minutes at 37° C.): 0.487 µM

Cc1ccnc(C(C)Sc2nc(N)cc(Cl)n2)c1 (centres unmarked) [Example 215, 4-Amino-6-chloro-2-(1-(4-methyl-2-pyridyl)ethyl)thio-pyrimidine hydrochloride]
IC50 [1]: 0.033 µM
IC50 ([2]; 30 minutes at 37° C.): 0.017 µM

Cc1ccnc(C(C#N)Sc2nc(N)cc(Cl)n2)c1 (centres unmarked) [Example 217, 4-Amino-6-chloro-2-(1-(4-methyl-2-pyridyl)-1-cyanomethyl)thio-pyrimidine]
inhibition at 1 µM [2]: 58%

CCC(Sc1nc(N)cc(Cl)n1)c1cc(C)ccn1 (centres unmarked) [Example 218, 4-Amino-6-chloro-2-(1-(4-methyl-2-pyridyl)propyl)thio-pyrimidine]
inhibition at 1 µM [2]: 84%

CC(=O)c1ccnc(C(C)Sc2nc(N)cc(Cl)n2)c1 (centres unmarked) [Example 219, 4-Amino-6-chloro-2-(1-(4-acetyl-2-pyridyl)ethyl)thio-pyrimidine]
inhibition at 1 µM [2]: 84%

CCCCC(Sc1nc(N)cc(Cl)n1)c1cc(C)ccn1 (centres unmarked) [Example 224, 4-Amino-6-chloro-2-(1-(4-methyl-2-pyridyl)pentyl)thio-pyrimidine]
IC50 (Table II, Wild Type) ([2]; 30 minutes at 37° C.): INACTIVE

Cc1ccnc(C(Sc2nc(N)cc(Cl)n2)C2CC2)c1 (centres unmarked) [Example 226, 4-Amino-6-chloro-2-(1-(4-methyl-2-pyridyl)-1-cyclopropyl-methyl)thio-pyrimidine mesylate]
inhibition at 50 µM [2]: 79%

CC(Sc1nc(N)cc(Cl)n1)c1cc(CN2CCOCC2)ccn1 (centres unmarked) [Example 227, 4-Amino-6-chloro-2-(1-(4-(4-morpholinyl)methyl-2-pyridyl)ethyl)thio-pyrimidine]
inhibition at 50 µM [2]: 49%

CCN(CC)Cc1ccnc(C(C)Sc2nc(N)cc(Cl)n2)c1 (centres unmarked) [Example 228]
inhibition at 10 µM [2]: 84%

CC(Sc1nc(N)cc(Cl)n1)c1ccc2ccccc2c1 (centres unmarked) [Example 229, 4-Amino-6-chloro-2-(1-(2-naphthalenyl)ethyl)thio-pyrimidine]
inhibition at 10 µM [2]: 90%

CC(Sc1nc(N)c(Br)c(Cl)n1)c1cc2ccccc2cn1 (centres unmarked) [Example 231, 4-Amino-5-bromo-6-chloro-2-(1-(3-isoquinolyl)ethyl)thio-pyrimidine]
inhibition at 1 µM [2]: 78%

CC(Sc1nc(N)cc(Cl)n1)c1nccc2ccccc12 (centres unmarked) [Example 232, 4-Amino-6-chloro-2-(1-(1-isoquinolyl)ethyl)thio-pyrimidine]
inhibition at 1 µM [2]: 90%

CC(Sc1nc(N)cc(Cl)n1)c1nccc2c1CCCC2 (centres unmarked) [Example 235, 4-Amino-6-chloro-2-(1-(1-(5,6,7,8-tetrahydroisoquinolyl))-ethyl)thiopyrimidine]
inhibition at 1 µM [2]: 90%

CC(Sc1nc(N)c(Br)c(Cl)n1)c1nccc2c1CCCC2 (centres unmarked) [Example 236, 4-Amino-5-bromo-6-chloro-2-(1-(1-(5,6,7,8-tetrahydroisoquinolyl))ethyl)thio-pyrimidine]
inhibition at 1 µM [2]: 58%

CC(Sc1nc(N)cc(Cl)n1)c1cc2c(c(Cl)n1)OCC2(C)C (centres unmarked) [Example 250, 4-Amino-6-chloro-2-(1-(7-chloro-3,3-dimethyl-2,3-dihydrofuro[2,3c]pyridine-5-yl)ethyl)thio-pyrimidine]
IC50 ([2]; 30 minutes at 37° C.): 0.153 µM

CCc1coc2c(Cl)nc(C(C)Sc3nc(N)cc(Cl)n3)cc12 (centres unmarked) [Example 251, 4-Amino-6-chloro-2-(1-(7-chloro-3-ethylfuro-[2,3c]pyridine-5yl)ethyl)thio-pyrimidine]
IC50 ([2]; 30 minutes at 37° C.): 0.144 µM

CC(C)c1coc2cnc(C(C)Sc3nc(N)cc(Cl)n3)cc12 (centres unmarked) [Example 252, 4-Amino-6-chloro-2-(1-(3-(1-methylethyl)furo[2,3c]-pyridin-5-yl)ethyl)thio-pyrimidine]
IC50 ([2]; 30 minutes at 37° C.): 0.175 µM

Nc1cc(Cl)nc(SCc2cnc3occc3c2)n1 [Example 304, 4-amino-6-chloro-2-(furo[2,3-b]pyridin-5-yl-methylthio)-pyrimidine]
inhibition at 1 µM [2]: 94%

CCOC(=O)c1cc(N)nc(SCc2ccc3ccccc3c2)n1 [Example 305, 6-amino-2-(2-naphthylmethylthio)-pyrimidine-4-carboxylic acid ethyl ester]
inhibition at 50 µM [2]: 21%
